# Results from PubChem BioAssay (NCI).
#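 Interpolation was linear, between the two tested concentrations surrounding the appropriate level; five concentrations were tested over 48 hours in 96-well plates. GI50 is the concentration that inhibits growth by half. TGI: concentration producing complete growth inhibition.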
# Experiments:
# Experiment in all cases: inhibition of tumour cell growth, NCI panel, 48 h
# NCI-H460 lung = system: NCI-H460 lung
# LOX IMVI melanoma = system: LOX IMVI melanoma
# SF-268 CNS = system: SF-268 CNS
# CAKI-1 renal = system: CAKI-1 renal
# UACC-62 melanoma = system: UACC-62 melanoma
# UACC-257 melanoma = system: UACC-257 melanoma
# SN12C renal = system: SN12C renal
# CCRF-CEM leukemia = system: CCRF-CEM leukemia
# ACHN renal = system: ACHN renal
# HL-60(TB) leukemia = system: HL-60(TB) leukemia
# T-47D breast = system: T-47D breast
# SNB-19 CNS = system: SNB-19 CNS
# A549 NSCLC = system: A549 NSCLC
# SW-620 colon = system: SW-620 colon
# TK-10 renal = system: TK-10 renal
# UO-31 renal = system: UO-31 renal
# OVCAR-8 ovarian = system: OVCAR-8 ovarian
# MCF7 breast = system: MCF7 breast
# NCI-H226 lung = system: NCI-H226 lung
# OVCAR-4 ovarian = system: OVCAR-4 ovarian
# EKVX NSCLC = system: EKVX NSCLC
# RPMI-8226 leukemia = system: RPMI-8226 leukemia
# K-562 leukemia = system: K-562 leukemia
# HCT-15 colon = system: HCT-15 colon
# A498 renal = system: A498 renal
# MOLT-4 leukemia = system: MOLT-4 leukemia
# SNB-75 CNS = system: SNB-75 CNS
# COLO 205 colon = system: COLO 205 colon
# RXF 393 renal = system: RXF 393 renal
# SR leukemia = system: SR leukemia
# SF-295 CNS = system: SF-295 CNS
# BT-549 breast = system: BT-549 breast
# 786-0 renal = system: 786-0 renal
# NCI/ADR-RES ovarian = system: NCI/ADR-RES ovarian
# HT29 colon = system: HT29 colon
# KM12 colon = system: KM12 colon
# SF-539 CNS = system: SF-539 CNS
# NCI-H23 lung = system: NCI-H23 lung
# MDA-MB-435 = system: MDA-MB-435
# HS 578T breast = system: HS 578T breast
# HOP-62 NSCLC = system: HOP-62 NSCLC
# OVCAR-3 ovarian = system: OVCAR-3 ovarian
# M14 melanoma = system: M14 melanoma
# MALME-3M melanoma = system: MALME-3M melanoma
# SK-MEL-2 melanoma = system: SK-MEL-2 melanoma
# IGROV1 ovarian = system: IGROV1 ovarian
# PC-3 prostate = system: PC-3 prostate
# SK-MEL-28 melanoma = system: SK-MEL-28 melanoma
# HOP-92 NSCLC = system: HOP-92 NSCLC
# NCI-H522 lung = system: NCI-H522 lung
# SK-OV-3 ovarian = system: SK-OV-3 ovarian
# HCT-116 colon = system: HCT-116 colon
# OVCAR-5 ovarian = system: OVCAR-5 ovarian
# DU-145 prostate = system: DU-145 prostate
# MDA-MB-231 breast = system: MDA-MB-231 breast
# U251 CNS = system: U251 CNS
# SK-MEL-5 melanoma = system: SK-MEL-5 melanoma
# HCC-2998 colon = system: HCC-2998 colon
smiles,measurement,setting,value
Cc1ccc2nc3ccccc3c(C3C4C(=O)N(c5ccc(F)cc5)C(=O)C4ON3C(C(N)=O)c3ccccc3)c2c1 (stereo not given),TGI,NCI-H460 lung,> 100 µM
same,TGI,LOX IMVI melanoma,> 100 µM
same,TGI,SF-268 CNS,> 100 µM
same,TGI,CAKI-1 renal,> 100 µM
same,TGI,UACC-62 melanoma,> 100 µM
same,TGI,UACC-257 melanoma,> 100 µM
same,TGI,SN12C renal,> 100 µM
same,TGI,CCRF-CEM leukemia,> 100 µM
same,TGI,ACHN renal,> 100 µM
same,TGI,HL-60(TB) leukemia,> 100 µM
same,TGI,T-47D breast,> 100 µM
same,TGI,SNB-19 CNS,> 100 µM
same,TGI,A549 NSCLC,> 100 µM
same,TGI,SW-620 colon,> 100 µM
same,TGI,TK-10 renal,> 100 µM
same,TGI,UO-31 renal,> 100 µM
same,TGI,OVCAR-8 ovarian,> 100 µM
same,TGI,MCF7 breast,80.8 µM
same,TGI,NCI-H226 lung,> 100 µM
same,TGI,OVCAR-4 ovarian,> 100 µM
same,TGI,EKVX NSCLC,> 100 µM
same,TGI,RPMI-8226 leukemia,77.6 µM
same,TGI,K-562 leukemia,> 100 µM
same,TGI,HCT-15 colon,> 100 µM
same,TGI,A498 renal,> 100 µM
same,TGI,MOLT-4 leukemia,> 100 µM
same,TGI,SNB-75 CNS,> 100 µM
same,TGI,COLO 205 colon,35.7 µM
same,TGI,RXF 393 renal,> 100 µM
same,TGI,SR leukemia,> 100 µM
same,TGI,SF-295 CNS,> 100 µM
same,TGI,BT-549 breast,> 100 µM
same,TGI,786-0 renal,> 100 µM
same,TGI,NCI/ADR-RES ovarian,90.2 µM
same,TGI,HT29 colon,> 100 µM
same,TGI,KM12 colon,> 100 µM
same,TGI,SF-539 CNS,72.1 µM
same,TGI,NCI-H23 lung,> 100 µM
same,TGI,MDA-MB-435,99 µM
same,TGI,HS 578T breast,> 100 µM
same,TGI,HOP-62 NSCLC,> 100 µM
same,TGI,OVCAR-3 ovarian,71.6 µM
same,TGI,M14 melanoma,> 100 µM
same,TGI,MALME-3M melanoma,80.7 µM
same,TGI,SK-MEL-2 melanoma,> 100 µM
same,TGI,IGROV1 ovarian,> 100 µM
same,TGI,PC-3 prostate,> 100 µM
same,TGI,SK-MEL-28 melanoma,> 100 µM
same,TGI,HOP-92 NSCLC,> 100 µM
same,TGI,NCI-H522 lung,57.8 µM
same,TGI,SK-OV-3 ovarian,> 100 µM
same,TGI,HCT-116 colon,> 100 µM
same,TGI,OVCAR-5 ovarian,> 100 µM
same,TGI,DU-145 prostate,> 100 µM
same,TGI,MDA-MB-231 breast,> 100 µM
same,TGI,U251 CNS,> 100 µM
O=C1c2c(c(=O)[nH]c3ccccc23)[C@H](c2ccccc2)[C@@H]2CCCN12,GI50,NCI-H460 lung,2.83 µM
same,TGI,NCI-H460 lung,16.5 µM
same,GI50,LOX IMVI melanoma,2.3 µM
same,TGI,LOX IMVI melanoma,11.8 µM
same,GI50,SF-268 CNS,3.68 µM
same,TGI,SF-268 CNS,23 µM
same,GI50,CAKI-1 renal,17.6 µM
same,TGI,CAKI-1 renal,68.2 µM
same,GI50,UACC-62 melanoma,3.14 µM
same,TGI,UACC-62 melanoma,22.3 µM
same,GI50,UACC-257 melanoma,5.13 µM
same,TGI,UACC-257 melanoma,53 µM
same,GI50,SN12C renal,3.38 µM
same,TGI,SN12C renal,> 100 µM
same,GI50,CCRF-CEM leukemia,4.61 µM
same,TGI,CCRF-CEM leukemia,> 100 µM
same,GI50,ACHN renal,2.64 µM
same,TGI,ACHN renal,14.9 µM
same,GI50,HL-60(TB) leukemia,1.98 µM
same,TGI,HL-60(TB) leukemia,8.29 µM
same,GI50,T-47D breast,3.46 µM
same,TGI,T-47D breast,9.2 µM
same,GI50,SNB-19 CNS,3.93 µM
same,TGI,SNB-19 CNS,> 100 µM
same,GI50,A549 NSCLC,20.2 µM
same,TGI,A549 NSCLC,> 100 µM
same,GI50,SW-620 colon,3.38 µM
same,TGI,SW-620 colon,> 100 µM
same,GI50,TK-10 renal,20.5 µM
same,TGI,TK-10 renal,> 100 µM
same,GI50,UO-31 renal,2.1 µM
same,TGI,UO-31 renal,7.05 µM
same,GI50,OVCAR-8 ovarian,3.62 µM
same,TGI,OVCAR-8 ovarian,> 100 µM
same,GI50,MCF7 breast,2.57 µM
same,TGI,MCF7 breast,9.38 µM
same,GI50,NCI-H226 lung,2.05 µM
same,TGI,NCI-H226 lung,13.8 µM
same,GI50,SK-MEL-5 melanoma,2.01 µM
same,TGI,SK-MEL-5 melanoma,5.07 µM
same,GI50,OVCAR-4 ovarian,2.63 µM
same,TGI,OVCAR-4 ovarian,11.6 µM
same,GI50,HCC-2998 colon,10.9 µM
same,TGI,HCC-2998 colon,69.6 µM
same,GI50,EKVX NSCLC,13.5 µM
same,TGI,EKVX NSCLC,55.8 µM
same,GI50,RPMI-8226 leukemia,4.83 µM
same,TGI,RPMI-8226 leukemia,48.4 µM
same,GI50,K-562 leukemia,5.63 µM
same,TGI,K-562 leukemia,> 100 µM
same,GI50,HCT-15 colon,3.37 µM
same,TGI,HCT-15 colon,> 100 µM
same,GI50,A498 renal,1.93 µM
same,TGI,A498 renal,9.09 µM
same,GI50,MOLT-4 leukemia,5.12 µM
same,TGI,MOLT-4 leukemia,39.2 µM
same,GI50,SNB-75 CNS,2.64 µM
same,TGI,SNB-75 CNS,16.9 µM
same,GI50,COLO 205 colon,14.6 µM
same,TGI,COLO 205 colon,44.5 µM
same,GI50,RXF 393 renal,1.88 µM
same,TGI,RXF 393 renal,4.34 µM
same,GI50,SR leukemia,2.61 µM
same,TGI,SR leukemia,36.7 µM
same,GI50,SF-295 CNS,8.72 µM
same,TGI,SF-295 CNS,47.8 µM
same,GI50,BT-549 breast,4.84 µM
same,TGI,BT-549 breast,55.2 µM
same,GI50,786-0 renal,4.61 µM
same,TGI,786-0 renal,> 100 µM
same,GI50,NCI/ADR-RES ovarian,3.05 µM
same,TGI,NCI/ADR-RES ovarian,36.4 µM
same,GI50,KM12 colon,3.08 µM
same,TGI,KM12 colon,13.6 µM
same,GI50,SF-539 CNS,2.6 µM
same,TGI,SF-539 CNS,6.7 µM
same,GI50,NCI-H23 lung,2.77 µM
same,TGI,NCI-H23 lung,37.9 µM
same,GI50,MDA-MB-435,3.7 µM
same,TGI,MDA-MB-435,15.2 µM
same,GI50,HS 578T breast,2.89 µM
same,TGI,HS 578T breast,11.1 µM
same,GI50,HOP-62 NSCLC,4.32 µM
same,TGI,HOP-62 NSCLC,34 µM
same,GI50,OVCAR-3 ovarian,2.46 µM
same,TGI,OVCAR-3 ovarian,7.1 µM
same,GI50,M14 melanoma,3.53 µM
same,TGI,M14 melanoma,14.5 µM
same,GI50,MALME-3M melanoma,6.87 µM
same,TGI,MALME-3M melanoma,43.8 µM
same,GI50,SK-MEL-2 melanoma,4.17 µM
same,TGI,SK-MEL-2 melanoma,46.7 µM
same,GI50,IGROV1 ovarian,3.59 µM
same,TGI,IGROV1 ovarian,15.6 µM
same,GI50,PC-3 prostate,6.2 µM
same,TGI,PC-3 prostate,> 100 µM
same,GI50,SK-MEL-28 melanoma,3.69 µM
same,TGI,SK-MEL-28 melanoma,32.9 µM
same,GI50,HOP-92 NSCLC,2.94 µM
same,TGI,HOP-92 NSCLC,15.7 µM
same,GI50,NCI-H522 lung,8.56 µM
same,TGI,NCI-H522 lung,> 100 µM
same,GI50,SK-OV-3 ovarian,9.56 µM
same,TGI,SK-OV-3 ovarian,80 µM
same,GI50,HCT-116 colon,2.54 µM
same,TGI,HCT-116 colon,> 100 µM
same,GI50,OVCAR-5 ovarian,2.7 µM
same,TGI,OVCAR-5 ovarian,9.59 µM
same,GI50,DU-145 prostate,3.38 µM
same,TGI,DU-145 prostate,27.5 µM
same,GI50,MDA-MB-231 breast,3.06 µM
same,TGI,MDA-MB-231 breast,27.5 µM
same,GI50,U251 CNS,3.37 µM
same,TGI,U251 CNS,18.3 µM
